In US5811454A (priority 1993, dated 1998):
pIC50: −log10 of the molar value. “Also recorded” adds a separate entry of the source. Where two headings read alike, the source gives them in different places.

How the values were obtained:
[1] = tested on: colorectal cell line LS174T; experiment: cells; details: Homo sapiens, 1 h
CPG2 = CPG2 (Pseudomonas sp., UniProt P06621); assay type: biochemical, bacterial
[2] = tested on: colorectal cell line LS174T
[3] = ph stat, naoh titration

CPG2, sequence (P06621 23-415): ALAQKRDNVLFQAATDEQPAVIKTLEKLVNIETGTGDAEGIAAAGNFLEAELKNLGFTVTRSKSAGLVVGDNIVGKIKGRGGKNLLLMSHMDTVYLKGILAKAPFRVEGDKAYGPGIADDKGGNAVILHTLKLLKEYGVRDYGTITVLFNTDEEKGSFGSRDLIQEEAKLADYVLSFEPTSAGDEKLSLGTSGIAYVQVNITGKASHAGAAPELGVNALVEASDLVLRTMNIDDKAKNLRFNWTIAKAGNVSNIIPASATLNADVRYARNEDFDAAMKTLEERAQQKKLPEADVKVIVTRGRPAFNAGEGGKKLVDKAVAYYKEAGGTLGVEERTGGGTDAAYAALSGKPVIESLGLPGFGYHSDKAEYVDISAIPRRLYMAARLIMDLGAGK

SMILES	pIC50 ([1]; read-out: Prodrug + CPG2 IC50)	pIC50 ([1]; read-out: Prodrug IC50)	Ability of prodrug to act as CPG2 substrate (in words) (CPG2)	pIC50 ([1]; read-out: Active Drug IC50)	Active Drug t1/2 (chemical half-life) [3] [min]	also measured
CS(=O)(=O)OCCN(CCOS(C)(=O)=O)c1ccc(C(=O)N[C@@H](CCC(=O)O)C(=O)O)c(F)c1 [Compound 7, 2-fluoro, 4-[bis-[2-(mesyloxy)ethyl]amino]benzoyl-L-glutamic acid]	< 3.10	< 3.10	such a poor substrate that it was not possible to measure its kinetics; also recorded: very poor substrate			
CS(=O)(=O)OCCN(CCCl)c1ccc(C(=O)N[C@@H](CCC(=O)O)C(=O)O)c(F)c1 [Compound 8, 2-fluoro, 4-[(2-chloroethyl)[2-(mesyloxy)ethyl]amino]benzoyl-L-glutamic acid]	< 3.10	< 3.10	good substrates			
O=C(O)CC[C@H](NC(=O)c1ccc(N(CCCl)CCCl)cc1F)C(=O)O [Compound 9, 2-fluoro, 4-[bis(2-chloroethyl)amino]benzoyl-L-glutamic acid]			good substrates			pIC50 ([2]; read-out: Prodrug + CPG2 IC50): < 3.10; pIC50 ([2]; read-out: Prodrug IC50): < 3.10; kcat (CPG2): 462 S^-1
CS(=O)(=O)OCCN(CCCl)c1ccc(C(=O)O)c(F)c1 [Compound 11]				< 3.10	192	
CS(=O)(=O)OCCN(CCOS(C)(=O)=O)c1ccc(C(=O)N[C@@H](CCC(=O)O)C(=O)O)cc1F [Compound 19]	3.32	< 3.10	good substrates			
CS(=O)(=O)OCCN(CCCl)c1ccc(C(=O)N[C@@H](CCC(=O)O)C(=O)O)cc1F [Compound 20, 3-fluoro, 4-[(2-chloroethyl)[2-(mesyloxy)ethyl]amino]benzoyl-L-glutamic acid]	3.46	< 3.10	good substrates			Prodrug t1/2 (chemical half-life) [3]: 122 min
O=C(O)CC[C@H](NC(=O)c1ccc(N(CCCl)CCCl)c(F)c1)C(=O)O [Compound 21, 3-fluoro, 4-[bis(2-chloroethyl) ,amino] benzoyl-L-glutamic acid]			good substrates			pIC50 ([2]; read-out: Prodrug + CPG2 IC50): 3.41; pIC50 ([2]; read-out: Prodrug IC50): < 3.10; kcat (CPG2): 1028 S^-1
CS(=O)(=O)OCCN(CCOS(C)(=O)=O)c1ccc(C(=O)O)cc1F [Compound 22]				3.32	1.9	
CS(=O)(=O)OCCN(CCCl)c1ccc(C(=O)O)cc1F [Compound 23]				3.55	2.4	
CS(=O)(=O)OCCN(CCOS(C)(=O)=O)c1ccc(C(=O)N[C@@H](CCC(=O)O)C(=O)O)cc1 [Compound 25, reference compound]						Prodrug t1/2 (chemical half-life) [3]: 42 min
CS(=O)(=O)OCCN(CCCl)c1ccc(C(=O)N[C@@H](CCC(=O)O)C(=O)O)cc1 [Compound 26, 4[(2chloroethyl)[2(mesyloxy)ethyl]amino]benzoylL-glutamic acid, reference compound]	3.70	< 3.10				Prodrug activity (increased cytotoxicity on conversion by CPG2) [2]: substantial prodrug activity; Prodrug t1/2 (chemical half-life) [3]: 984 min
CS(=O)(=O)OCCN(CCCl)c1ccc(C(=O)O)cc1 [Compound 29, reference compound]				3.73	58	
